Among the data in patent US9650616B2, “Methods for increasing grain yield” (University of Florida Research Foundation, Inc., priority 2014, dated 2017) are Km values, retold here.

Each structure is given as a SMILES string. Residue numbers refer to the chain shown, from its start.

Test [1] concerns the target T1, maize endosperm AGPase, large subunit variant GGRA (Q96G, D161G, A443R, Q289A; numbering of SEQ ID NO: 20) (Zea mays, UniProt P55241+Q84PF5, A443R/D161G/Q289A/Q96G).
T1 sequence (P55241 46-516 A443R/D161G/Q289A/Q96G): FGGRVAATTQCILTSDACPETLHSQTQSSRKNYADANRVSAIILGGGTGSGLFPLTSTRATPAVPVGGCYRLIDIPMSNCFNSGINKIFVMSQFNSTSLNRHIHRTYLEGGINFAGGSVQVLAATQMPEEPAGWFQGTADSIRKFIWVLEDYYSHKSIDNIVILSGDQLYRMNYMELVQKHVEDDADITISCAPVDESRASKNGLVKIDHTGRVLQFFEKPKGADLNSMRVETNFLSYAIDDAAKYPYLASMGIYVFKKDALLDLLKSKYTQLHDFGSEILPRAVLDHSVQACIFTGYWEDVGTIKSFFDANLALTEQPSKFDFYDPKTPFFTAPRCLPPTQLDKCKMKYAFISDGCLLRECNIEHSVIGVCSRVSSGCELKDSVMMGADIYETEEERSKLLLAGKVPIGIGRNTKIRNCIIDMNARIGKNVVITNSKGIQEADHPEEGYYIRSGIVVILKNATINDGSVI
T1 sequence (Q84PF5 1-474): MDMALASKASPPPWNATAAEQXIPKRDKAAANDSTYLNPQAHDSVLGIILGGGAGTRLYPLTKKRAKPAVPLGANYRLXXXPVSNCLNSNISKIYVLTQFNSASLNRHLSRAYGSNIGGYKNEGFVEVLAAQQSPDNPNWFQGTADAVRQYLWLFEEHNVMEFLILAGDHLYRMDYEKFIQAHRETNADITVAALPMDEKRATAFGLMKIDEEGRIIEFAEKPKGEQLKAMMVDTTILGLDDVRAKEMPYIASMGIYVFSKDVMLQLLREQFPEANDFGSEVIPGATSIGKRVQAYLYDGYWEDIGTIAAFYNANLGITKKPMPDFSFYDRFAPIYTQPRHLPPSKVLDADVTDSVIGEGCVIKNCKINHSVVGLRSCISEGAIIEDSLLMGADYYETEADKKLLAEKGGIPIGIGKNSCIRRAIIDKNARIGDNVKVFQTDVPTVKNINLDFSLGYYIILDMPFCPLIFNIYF
In words: Apparent kinetic constants with 3-PGA, 37° C., GGRA. As to conditions: read-out: ATP Km. Format: biochemical. The text has this:
(§1) The small and large subunit plasmids of maize endosperm AGPase (pMONcBt2 and pMONcSh2, respectively) (Giroux et al., 1996) were expressed in E. coli AC70R1-504 cells (Iglesias et al., 1993) as previously described (Boehlein et al., 2008).
(§2) An endpoint assay was used to determine the rate of the AGPase reaction by coupling the formation of PPi to a decrease in NADH concentration (Boehlein et al., 2008). […] The Michaelis constants (Km) were obtained by varying one substrate in the presence of saturating concentrations of the second substrate. The activation constants were obtained by varying the activator at fixed levels of both substrates. All reactions were performed at 37° C. and mixes were prewarmed before starting the reaction with enzyme. […] The absorbance at 340 nm was monitored after 30 min and the amount of PPi produced was determined from a standard curve using PPi in complete reaction mixtures lacking AGPase. Blank samples contained complete reaction mixtures without enzyme and the change in absorbance between the blank and the reaction was used to calculate the amount of PPi produced. […]
(§3) The apparent Michaelis constant and maximum velocity of each reaction was calculated from a V vs. S plots using nonlinear regression analysis and the following equation, v=VmaxS/(Km+S), where v is the measured velocity, Vmax is the maximum velocity, S is the substrate concentration. […]

Test [2] relates to maize endosperm AGPase, wild type. As to conditions: Maize wt, presence of 3-PGA, ATP varied, Pi inhibition, P-MT; read-out: Km (ATP); cited from earlier work.
Test [3] addresses T2, maize endosperm AGPase, evolutionary mutant SH2-E (Zea mays, UniProt P55241+Q84PF5).
T2 construct: data of Boehlein et al., 2013
In words: Apparent kinetic constants with 3-PGA, 37° C., SH2-E. It is filed as biochemical. As to conditions: read-out: ATP Km. Here is the method:
as §2, §3
Each mutant, comprising 1, 2, 3 or 4 changes, was grown in a large scale culture, expressed and purified according to standard procedures (Boehlein et al., 2005). […] Next, the activation constant, Ka, was determined for each of the mutant enzymes. […]

The target of test [4] is T3, maize endosperm AGPase, large subunit variant GGRV (Q96G, D161G, A443R, I285V; numbering of SEQ ID NO: 20) (Zea mays, UniProt P55241+Q84PF5, A443R/D161G/I285V/Q96G).
T3 sequence (P55241 46-516 A443R/D161G/I285V/Q96G): T1 sequence (P55241 46-516 A443R/D161G/Q289A/Q96G) with I240V, A244Q
T3 sequence (Q84PF5 1-474): T1 sequence (Q84PF5 1-474)
In words: Apparent kinetic constants with 3-PGA, 37° C., GGRV. It is filed as biochemical. As to conditions: read-out: ATP Km.
Text: as §1, §2, §3

T2 sequence (P55241 46-516, change not shown, one chain of several): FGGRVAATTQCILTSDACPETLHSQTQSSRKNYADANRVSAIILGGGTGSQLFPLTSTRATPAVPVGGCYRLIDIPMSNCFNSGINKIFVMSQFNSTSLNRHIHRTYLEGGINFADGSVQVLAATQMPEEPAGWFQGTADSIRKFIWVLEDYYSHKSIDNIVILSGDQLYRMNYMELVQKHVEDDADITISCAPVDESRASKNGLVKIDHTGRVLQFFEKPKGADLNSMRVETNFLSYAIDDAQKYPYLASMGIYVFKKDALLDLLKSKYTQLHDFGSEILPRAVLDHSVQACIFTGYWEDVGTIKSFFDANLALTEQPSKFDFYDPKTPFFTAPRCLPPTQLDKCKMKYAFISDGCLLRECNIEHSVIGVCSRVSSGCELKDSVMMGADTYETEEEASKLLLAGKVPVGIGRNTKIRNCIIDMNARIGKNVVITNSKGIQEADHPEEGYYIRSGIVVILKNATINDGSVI

`Nc1ncnc2c1ncn2[C@@H]1O[C@H](COP(=O)(O)OP(=O)(O)OP(=O)(O)O)[C@@H](O)[C@H]1O` [ATP]: the Km was 57 µM in test [1], 110 µM in test [2], 100 µM in test [3] and 46 µM in test [4].

In general, Km refers to the substrate concentration at which the rate is half of its maximum.
